Reference: the supplement of paper PMC10307832

Tests used:
Experiment in all cases: relative viability (nuclei count vs DMSO), 5 days (fraction); higher = more cells survive
Palbociclib + AZD7762 = compound: CC(=O)c1c(C)c2cnc(Nc3ccc(N4CCNCC4)cn3)nc2n(C2CCCC2)c1=O [Palbociclib] + NC(=O)Nc1cc(-c2cccc(F)c2)sc1C(=O)N[C@H]1CCCNC1 [AZD7762] (partner 0.2 µM)
In short: (§1)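 Relative viability is defined as nuclei in treated wells over nuclei in vehicle wells. Duplicate plates were run and medians reported. Lung cancer cell lines in 1536-well plates were dosed by pin tool one day after seeding, with one drug or with a fixed anchor-drug dose plus five library-drug doses (not always all listed) in √10 steps, and nuclei were counted after 5 days.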

Palbociclib + Luminespib = compound: CC(=O)c1c(C)c2cnc(Nc3ccc(N4CCNCC4)cn3)nc2n(C2CCCC2)c1=O [Palbociclib] + CCNC(=O)c1noc(-c2cc(C(C)C)c(O)cc2O)c1-c1ccc(CN2CCOCC2)cc1 [Luminespib] (partner 0.01 µM)
In short: as §1

Palbociclib + Trametinib = compound: CC(=O)c1c(C)c2cnc(Nc3ccc(N4CCNCC4)cn3)nc2n(C2CCCC2)c1=O [Palbociclib] + CC(=O)Nc1cccc(-n2c(=O)n(C3CC3)c(=O)c3c(Nc4ccc(I)cc4F)n(C)c(=O)c(C)c32)c1 [Trametinib] (partner 0.02 µM)
In short: as §1

Palbociclib + OSI-027 = compound: CC(=O)c1c(C)c2cnc(Nc3ccc(N4CCNCC4)cn3)nc2n(C2CCCC2)c1=O [Palbociclib] + COc1cccc2cc(-c3nc([C@H]4CC[C@H](C(=O)O)CC4)n4ncnc(N)c34)[nH]c12 [OSI-027] (partner 0.5 µM)
In short: as §1

Cell Line	relative viability (Palbociclib + AZD7762; first compound 0.01 µM)	relative viability (Palbociclib + AZD7762; first compound 0.03162 µM)	relative viability (Palbociclib + AZD7762; first compound 0.1 µM)	relative viability (Palbociclib + AZD7762; first compound 0.3162 µM)	relative viability (Palbociclib + AZD7762; first compound 1 µM)	relative viability (Palbociclib + Luminespib; first compound 0.01 µM)	relative viability (Palbociclib + Luminespib; first compound 0.03162 µM)	relative viability (Palbociclib + Luminespib; first compound 0.1 µM)	relative viability (Palbociclib + Luminespib; first compound 0.3162 µM)	relative viability (Palbociclib + Luminespib; first compound 1 µM)	relative viability (Palbociclib + Trametinib; first compound 0.01 µM)	relative viability (Palbociclib + Trametinib; first compound 0.03162 µM)	relative viability (Palbociclib + Trametinib; first compound 0.1 µM)	relative viability (Palbociclib + Trametinib; first compound 0.3162 µM)	relative viability (Palbociclib + Trametinib; first compound 1 µM)	relative viability (Palbociclib + OSI-027; first compound 0.01 µM)	relative viability (Palbociclib + OSI-027; first compound 0.03162 µM)	relative viability (Palbociclib + OSI-027; first compound 0.1 µM)	relative viability (Palbociclib + OSI-027; first compound 0.3162 µM)	relative viability (Palbociclib + OSI-027; first compound 1 µM)
NCI-H2342	0.457	0.467	0.414	0.409	0.399	0.719	0.757	0.575	0.718	0.549	1.09	0.825	0.695	0.758	0.669	0.575	0.546	0.566	0.549	0.433
NCI-H2347	0.793	0.638	0.646	0.633	0.48	0.41	–	0.366	0.429	0.453	0.295	0.292	0.244	0.249	0.272	0.467	–	0.402	0.379	0.308
NCI-H2405	0.666	0.78	0.726	0.62	0.383	0.818	0.893	0.613	0.843	0.534	0.614	0.509	0.531	0.555	0.447	0.586	0.487	0.492	0.483	0.396
NCI-H3122	0.927	0.82	0.897	0.715	0.347	0.081	0.0895	0.0794	0.0926	0.0834	0.212	0.207	0.232	0.192	0.158	0.82	0.602	0.346	0.172	0.169
PC-3 [JPC-3]	0.794	0.814	0.619	0.592	0.41	0.708	0.743	0.649	0.661	0.53	0.657	0.634	0.534	0.703	0.597	0.728	0.599	0.561	0.483	0.349
PC-14	0.453	0.349	0.277	0.289	0.16	0.141	–	0.151	0.127	0.176	0.742	0.528	0.512	0.466	0.273	0.964	0.515	0.572	0.603	0.362
RERF-LC-KJ	0.966	0.661	0.932	0.948	0.996	1.4	1.17	0.937	1.3	1.48	0.793	0.771	0.846	0.813	0.91	0.541	0.583	0.508	0.598	0.64
SW 900	0.67	–	0.641	0.644	0.46	0.198	–	0.163	0.182	0.171	0.828	–	1.12	0.616	0.509	0.582	–	0.399	0.322	0.358
